# Reference: patent publication US12018011B2, “Macrocyclic compounds and compositions, and methods of preparing and using the same” (Kura Oncology, Inc., priority 2021, dated 2024)
# Biological target: T1, Recombinant human farnesyl transferase (FTase) (Homo sapiens, UniProt P49356)
# T1 construct: purchased Crelux (Martinsried, Germany)
# Assay: FTase fluorescence assay (farnesylation of dansyl-GCVLS peptide)
# Assay type: biochemical
# Conditions: recombinant human FTase 2.5 nM, Dansyl-GCVLS 85 nM, FPP 30 nM, 30° C., 50 minutes
# Excerpt: T24/83 cell line was purchased from the European Collection of Authenticated Cell Cultures (Salisbury, UK). Recombinant human farnesyl transferase (FTase) and geranylgeranyl transferase type-1 (GGTase) were obtained from Crelux (Martinsried, Germany). Dansyl labelled GCVLS peptide was purchased from Bachem (Torrance, CA), and Dansyl labelled GCVLL peptide was purchased from Bio Synthesis (Lewisville, TX). Farnesyl Pyrophosphate (FPP) and Geranylgeranyl pyrophosphate (GGPP) were purchased from Cayman (Ann Arbor, MI).
# Specific biochemical activity of the compounds disclosed herein as FTase inhibitors was determined by measuring the ability of the compounds to block the farnesylation by recombinant FTase of fluorescent (i.e., dansyl-labeled) test substrates derived from the CAAX box of farnesylated proteins, such as the peptide GCVLS.
# The IC50 value of the compounds disclosed herein as inhibitors of Ftase and/or GGTase, was determined by measuring the concentration (provided in nM) necessary to achieve inhibition of enzyme activity by 50% (IC50). […] Compounds having a low IC50 value against FTase, for example an IC50 (FTase)<100 nM, such as an IC50 (FTase)<10 nM, are preferred. Compounds having a low IC50 value against FTase and a high IC50 value against GGTase, for example an IC50 (FTase)<100 nM, such as an IC50 (FTase)<10 nM, and an IC50 (GGTase)>100 nM, are potent and selective inhibitors of FTase, and are particularly preferred.
# The inhibition activities of the compounds disclosed herein against Ftase and GGTase were measured in the respective fluorescence assays as follows:
# For the FTase assay, recombinant human FTase (2.5 nM), Dansyl labelled GCVLS peptide (85 nM), FPP (30 nM) and inhibitor were mixed in assay buffer (50 mM Tris, pH 7.5, 10 mM magnesium chloride, 10 μM zinc chloride, 0.08% CHAPS, 5 mM dithiothreitol) and incubated in a total volume of 20 μL at 30° C. for 50 minutes.
# For both the FTase assay and GGTase assay, fluorescence intensity was detected (excitation at 340 nm and emission at 486 nm) using EnVision (PerkinElmer; Waltham, MA), IC50 determinations were performed using a sigmoidal dose-response model with Xlfit software (IDBS, Inc.; Boston, MA), and tipifarnib was used as a positive control. All the assay plates for each assay passed the QC criteria (S/B, Z factor).
row,SMILES,IC50
1,"Cn1cncc1[C@]1(N)c2ccc(Cl)c(c2)COc2cccc(c2)-c2cc(=O)n(C)c3ccc1cc23 (racemic) [(R)-46, (R)-3-amino-4^4-chloro-2^1-methyl-3-(1-methyl-1H-imidazol-5-yl)-2^1,2^2-dihydro-6-oxa-2(4,6)-quinolina-1,4(1,3)-dibenzenacyclohexaphan-2^2-one]",> 100 nM
2,"[2H]C([2H])([2H])n1c(=O)cc2c3cc(ccc31)[C@@H](n1cncc1C)c1ccc(Cl)c(c1)COc1cccc-2c1 [(R)-76, (R)-4^4-chloro-2^1-(methyl-d3)-3-(5-methyl-1H-imidazol-1-yl)-2^1,2^2-dihydro-6-oxa-2(4,6)-quinolina-1,4(1,3)-dibenzenacyclohexaphan-2^2-one]",10 to 100 nM
3,"Cn1cncc1[C@]1(N)c2ccc(C#N)c(c2)OCCc2cccc(c2)-c2cc(=O)n(C)c3ccc1cc23 (racemic) [(R)-37, (R)-3-amino-2^1-methyl-3-(1-methyl-1H-imidazol-5-yl)-2^2-oxo-2^1,2^2-dihydro-5-oxa-2(4,6)-quinolina-1,4(1,3)-dibenzenacycloheptaphane-4^4-carbonitrile]",> 100 nM
4,"Cn1cnnc1[C@]1(N)c2ccc(C#N)c(c2)OCCc2cccc(c2)-c2cc(=O)n(C)c3ccc1cc23 (racemic) [(R)-39, (R)-3-amino-21-methyl-3-(4-methyl-4H-1,2,4-triazol-3-yl)-2^2-oxo-2^1,2^2-dihydro-5-oxa-2(4,6)-quinolina-1,4(1,3)-dibenzenacycloheptaphane-4^4-carbonitrile]",> 100 nM
5,"Cn1cnnc1[C@]1(N)c2ccc(Cl)c(c2)COc2cccc(c2)-c2cc(=O)n(C)c3ccc1cc23 (racemic) [(R)-51, (R)-3-amino-4^4-chloro-2^1-methyl-3-(4-methyl-4H-1,2,4-triazol-3-yl)-2^1,2^2-dihydro-6-oxa-2(4,6)-quinolina-1,4(1,3)-dibenzenacyclohexaphan-2^2-one]",> 100 nM
6,"Cn1cnnc1[C@]1(N)c2ccc(Cl)c(c2)OCCc2cccc(c2)-c2cc(=O)n(C3CC3)c3ccc1cc23 (racemic) [(R)-35, (R)-3-amino-4^4-chloro-2^1-cyclopropyl-3-(4-methyl-4H-1,2,4-triazol-3-yl)-2^1,2^2-dihydro-5-oxa-2(4,6)-quinolina-1,4(1,3)-dibenzenacycloheptaphan-2^2-one]",> 100 nM
7,"Cn1cncc1[C@]1(N)c2ccc(Cl)c(c2)OCCc2cccc(c2)-c2cc(=O)n(C)c3ccc1cc23 (racemic) [(R)-27, (R)-3-amino-4^4-chloro-2^1-methyl-3-(1-methyl-1H-imidazol-5-yl)-2^1,2^2-dihydro-5-oxa-2(4,6)-quinolina-1,4(1,3)-dibenzenacycloheptaphan-2^2-one]",> 100 nM
8,"[2H]C([2H])([2H])n1c(=O)cc2c3cc(ccc31)[C@](O)(c1cncn1C)c1ccc(Cl)c(c1)OCCc1cccc-2c1 (racemic) [(R)-28, (R)-4^4-chloro-3-hydroxy-2^1-(methyl-d3)-3-(1-methyl-1H-imidazol-5-yl)-2^1,2^2-dihydro-5-oxa-2(4,6)-quinolina-1,4(1,3)-dibenzenacycloheptaphan-2^2-one]",> 100 nM
9,"Cn1cncc1[C@]1(N)c2ccc(C#N)c(c2)COc2cccc(c2)-c2cc(=O)n(C3CC3)c3ccc1cc23 (racemic) [(R)-57, (R)-3-amino-21-cyclopropyl-3-(1-methyl-1H-imidazol-5-yl)-2^2-oxo-2^1,2^2-dihydro-6-oxa-2(4,6)-quinolina-1,4(1,3)-dibenzenacyclohexaphane-4^4-carbonitrile]",> 100 nM
10,"Cn1cncc1[C@]1(N)c2ccc(Cl)c(c2)OCCc2cccc(c2)-c2cc(=O)n(C3CC3)c3ccc1cc23 (racemic) [(R)-30, (R)-3-amino-4^4-chloro-2^1-cyclopropyl-3-(1-methyl-1H-imidazol-5-yl)-2^1,2^2-dihydro-5-oxa-2(4,6)-quinolina-1,4(1,3)-dibenzenacycloheptaphan-2^2-one]",> 100 nM
11,"Cn1cncc1[C@]1(N)c2ccc(C#N)c(c2)OCc2cccc(c2)-c2cc(C#N)nc3ccc1cc23 (racemic) [(R)-21, (R)-3-amino-3-(1-methyl-1H-imidazol-5-yl)-5-oxa-2(4,6)-quinolina-1,4(1,3)-dibenzenacyclohexaphane-2^2,4^4-dicarbonitrile]",> 100 nM
12,"Cn1cncc1[C@]1(O)c2ccc(Cl)c(c2)OCc2cccc(c2)-c2cc(=O)n(C)c3ccc1cc23 (racemic) [(R)-14, (R)-4^4-chloro-3-hydroxy-2^1-methyl-3-(1-methyl-1H-imidazol-5-yl)-2^1,2^2-dihydro-5-oxa-2(4,6)-quinolina-1,4(1,3)-dibenzenacyclohexaphan-2^2-one]",> 100 nM

# Next, values leading:
row,IC50,SMILES
1,> 100 nM,"COc1cc2c3cc(ccc3n1)C(O)(c1cncn1C)c1ccc(Cl)c(c1)CCOc1cccc-2c1 (centres unmarked) [Compound 64, 4^4-chloro-2^2-methoxy-3-(1-methyl-1H-imidazol-5-yl)-7-oxa-2(4,6)-quinolina-1,4(1,3)-dibenzenacycloheptaphan-3-ol]"
2,> 100 nM,"Cn1cncc1[C@]1(N)c2ccc(C#N)c(c2)CCc2cccc(c2)-c2cc(=O)n(C)c3ccc1cc23 (racemic) [(S)-7, (S)-3-amino-2^1-methyl-3-(1-methyl-1H-imidazol-5-yl)-22-oxo-2^1,2^2-dihydro-2(4,6)-quinolina-1,4(1,3)-dibenzenacyclohexaphane-4^4-carbonitrile]"
3,10 to 100 nM,"Cn1cncc1C1(O)c2cccc(c2)CCc2cccc(c2)-c2cc(=O)[nH]c3ccc1cc23 (centres unmarked) [Compound 1, 3-hydroxy-3-(1-methyl-1H-imidazol-5-yl)-2^1,2^2-dihydro-2(4,6)-quinolina-1,4(1,3)-dibenzenacyclohexaphan-2^2-one]"
4,≤ 10 nM,"COc1cc2c3cc(ccc3n1)C(O)(c1cncn1C)c1ccc(C#N)c(c1)CCc1cccc-2c1 (centres unmarked) [Compound 5, 3-hydroxy-2^2-methoxy-3-(1-methyl-1H-imidazol-5-yl)-2(4,6)-quinolina-1,4(1,3)-dibenzenacyclohexaphane-4^4-carbonitrile]"
5,10 to 100 nM,"[2H]C([2H])([2H])OC1(c2nncn2C)c2ccc(Cl)c(c2)OCCc2cccc(c2)-c2cc(=O)n(C([2H])([2H])[2H])c3ccc1cc23 (centres unmarked) [Compound 33, 4^4-chloro-3-(methoxy-d3)-2^1-(methyl-d3)-3-(4-methyl-4H-1,2,4-triazol-3-yl)-2^1,2^2-dihydro-5-oxa-2(4,6)-quinolina-1,4(1,3)-dibenzenacycloheptaphan-2^2-one]"
6,10 to 100 nM,"[2H]C([2H])([2H])n1c(=O)cc2c3cc(ccc31)[C@H](n1cncc1C)c1ccc(Cl)c(c1)COc1cccc-2c1 [(S)-76, (S)-4^4-chloro-2^1-(methyl-d3)-3-(5-methyl-1H-imidazol-1-yl)-2^1,2^2-dihydro-6-oxa-2(4,6)-quinolina-1,4(1,3)-dibenzenacyclohexaphan-2^2-one]"
7,≤ 10 nM,"Cn1cnnc1C1(O)c2ccc(C#N)c(c2)OCCc2cccc(c2)-c2cc(=O)n(C)c3ccc1cc23 (centres unmarked) [Compound 38, 3-hydroxy-2^1-methyl-3-(4-methyl-4H-1,2,4-triazol-3-yl)-2^2-oxo-2^1,2^2-dihydro-5-oxa-2(4,6)-quinolina-1,4(1,3)-dibenzenacycloheptaphane-4^4-carbonitrile]"
8,> 100 nM,"Cn1cncc1[C@]1(O)c2ccc(C#N)c(c2)CCc2cccc(c2)-c2cc(=O)n(C)c3ccc1cc23 (racemic) [(S)-6, (S)-3-hydroxy-2^1-methyl-3-(1-methyl-1H-imidazol-5-yl)-2^2-oxo-2^1,2^2-dihydro-2(4,6)-quinolina-1,4(1,3)-dibenzenacyclohexaphane-4^4-carbonitrile]"
9,≤ 10 nM,"Cn1cncc1C1(O)c2ccc(Br)c(c2)COc2cccc(c2)-c2cncc3ccc1cc23 (centres unmarked) [Compound 83, 4^4-bromo-3-(1-methyl-1H-imidazol-5-yl)-6-oxa-2(4,6)-isoquinolina-1,4(1,3)-dibenzenacyclohexaphan-3-ol]"
10,10 to 100 nM,"Cn1cncc1C1(N)c2ccc(C#N)c(c2)COc2cccc(c2)-c2cc(NC3COC3)nc3ccc1cc23 (centres unmarked) [Compound 68, 3-amino-3-(1-methyl-1H-imidazol-5-yl)-2^2-(oxetan-3-ylamino)-6-oxa-2(4,6)-quinolina-1,4(1,3)-dibenzenacyclohexaphane-4^4-carbonitrile]"
11,10 to 100 nM,"Cc1cn([C@H]2c3ccc(C#N)c(c3)COc3cccc(c3)-c3cc(C#N)nc4ccc2cc34)cn1 [(R)-90, (R)-3-(4-methyl-1H-imidazol-1-yl)-6-oxa-2(4,6)-quinolina-1,4(1,3)-dibenzenacyclohexaphane-2^2,4^4-dicarbonitrile]"
